In patent US20250057819A1, “DRUG COMBINATIONS FOR INHIBITING CORONAVIRUS REPLICATION” (priority 2021, published 2025):
pEC50, pIC50: −log10 of the molar value. Structures can show the parent of a compound that is named as a salt. Where two headings read alike, the source gives them in different places.

What was measured:
[1] = tested on: rHCoVs-OC43; assay: organism not typed; assay type: cell-based
[2] = tested on: HRT-18 cells; assay: Cell viability assay (MTT) in HRT-18 cells
[3] = tested on: SARS-CoV-2; assay: microbe, parasite or virus in culture; assay type: cell-based; settings: Severe acute respiratory syndrome coronavirus 2, Huh7.5, 48 h; read-out: SARS-CoV-2 EC50
[4] = Cell viability assay (MTT) in Huh7.5 cells; assay type: cell-based, human; settings: human, Huh7.5 cells, Huh7.5 (B), read-out: SARS-CoV-2 CC50
Description: Cell viability was monitored by a mitochondrial activity test using methyl-thiazolyl-tetrazolium (MTT, Sigma). After 48 hours of drug treatment, cells were treated with 1 mg/ml of MTT during 3 hours at 37° C. The supernatants were removed and the MTT crystals were dissolved using DMSO and a shaker. The absorbance was read with a Tecan Spark at 570 nm with reference at 650 nm.
Only the most promising molecules or those studied in synergy were tested in Calu3 cells.

[5] = Cell viability assay (MTT) in HRT-18 cells; settings: human, CC50 (μM)
[6] = drug 2 alone (fast synergy screening table), read-out: IC50
[7] = drug alone, HRT-18 cells, MOI 0.025, 48 h treatment, decrease of Rluc, read-out: EC50
[8] = drug 2 alone (fast synergy screening table)
[9] = drug alone, HRT-18 cells, 48 h treatment, MTT
[10] = 48 h, drug 2 alone (fast synergy screening table), read-out: IC50

Molecule	pEC50 [1, 7]	CC50 at 48 h [5, 8] [µM]	CC50 at 48 h [5, 9] [µM]	also measured
Monesin sodium sulfate	7.54	–	–	pIC50 [1, 6]: 7.54; CC50 [2, 8]: 0.9 µM; CC50 [2, 9]: 0.9 µM
CC(=O)Oc1ccccc1C(=O)Nc1ncc([N+](=O)[O-])s1 [Nitazoxanide]	5.88	> 10	> 10	pIC50 [1, 10]: 5.88; pEC50 [3]: 6.27; CC50 at 48 h [4]: > 10 µM
CC(C)COc1ccc(CNC(=O)N(Cc2ccc(F)cc2)C2CCN(C)CC2)cc1 [Pimanavserin]	5.22	–	–	CC50 [2, 9]: > 10 µM
CCCCCCCCCC(=O)OC1(c2ccc(Cl)cc2)CCN(CCCC(=O)c2ccc(F)cc2)CC1 [Haloperidol decanoate]	< 5.00	–	> 10	–
CN(C)[C@@H](CCOc1cccc2ccccc12)c1ccccc1 [Dapoxetine hydrochloride]	5.33	–	> 10	–
CNCC[C@H](Oc1cccc2ccccc12)c1cccs1 [Duloxetine hydrochloride]	–	–	> 10	pEC50 ([1]; HRT-18, 48 h): 5.32
O=C(Nc1ccc(Oc2ccc(Cl)cc2)c(Cl)c1)c1cc(I)cc(I)c1O [Rafoxanide]	5.16	–	> 10	–
CN(C)CCOc1ccc(/C(=C(/CCCl)c2ccccc2)c2ccccc2)cc1 [Toremifene Citrate]	5.59	> 10	> 10	pIC50 ([1]; 48 h): 5.59
CN(C)CC/C=C1/c2ccccc2Sc2ccc(Cl)cc21 [Chlorprothixene]	5.12	–	> 10	–
CC(C)/N=c1\cc2n(-c3ccc(Cl)cc3)c3ccccc3nc-2cc1Nc1ccc(Cl)cc1 [Clofazimine]	5.74	> 10	> 10	pIC50 [1, 10]: 5.74; pIC50 [1, 6]: 5.74
Clc1ccc(C(Cn2ccnc2)OCc2ccsc2Cl)c(Cl)c1 (centres unmarked) [Tioconazole]	–	–	> 10	pEC50 ([1]; HRT-18, 48 h): 5.39
COC(=O)C1=C(C)NC(C)=C(C(=O)OCCN2CCN(C(c3ccccc3)c3ccccc3)CC2)C1c1cccc([N+](=O)[O-])c1 (centres unmarked) [Manidipine dihydrochloride]	5.35	> 10	> 10	pIC50 [1, 10]: 5.35; pIC50 [1, 6]: 5.35
Cc1cc(/C=C/C#N)cc(C)c1Nc1ccnc(Nc2ccc(C#N)cc2)n1 [Rilpivirine]	< 5.00	–	10	–
C=C1/C(=C\C=C2/CCC[C@]3(C)[C@@H]([C@H](C)CCCC(C)C)CC[C@@H]23)C[C@@H](O)C[C@@H]1O [Alfacalcidol]	5.77	> 10	> 10	pIC50 [1, 10]: 5.77; pIC50 [1, 6]: 5.77
CCOC(=O)C1=C(COCCN)NC(C)=C(C(=O)OC)C1c1ccccc1Cl (centres unmarked) [Amlodipine benzenesulphonate]	5.28	> 10	> 10	pIC50 [1, 10]: 5.28; pIC50 [1, 6]: 5.28
CC/C(=C(\c1ccccc1)c1ccc(OCCN(C)C)cc1)c1ccccc1 [Tamoxifen]	–	–	> 10	–
CCCCCCCCc1ccc(CCC(N)(CO)CO)cc1 [Fingolimod hydrochloride]	5.41	> 10	10	pIC50 [1, 10]: 5.41; pIC50 [1, 6]: 5.41
CN(C)CCCN1c2ccccc2CCc2ccc(Cl)cc21 [Clomipramine hydrochloride]	–	–	> 10	–
C[C@@H]1O[C@@H](O[C@H]2C[C@@H](O)[C@]3(CO)[C@H]4[C@H](O)C[C@]5(C)[C@@H](C6=CC(=O)OC6)CC[C@]5(O)[C@@H]4CC[C@]3(O)C2)[C@H](O)[C@H](O)[C@H]1O [Ouabain]	7.80	0.028	0.028	pIC50 [1, 10]: 7.80
CCCCCCCCCCC[C@@H](C[C@@H]1OC(=O)[C@H]1CCCCCC)OC(=O)[C@H](CC(C)C)NC=O [Orlistat]	5.14	–	> 10	–
Benproperine phosphate	5.25	–	–	CC50 [2, 9]: > 10 µM

Molecule	pEC50 [1, 7]	CC50 at 48 h [5, 8] [µM]	CC50 at 48 h [5, 9] [µM]	also measured
Cc1ccc(Sc2ccccc2N2CCNCC2)c(C)c1 [Vortioxetine]	–	> 10	–	pIC50 [1, 10]: 5.62; pIC50 [1, 6]: 5.62
Cc1nc2n(c(=O)c1CCN1CCC(c3noc4cc(F)ccc34)CC1)CCCC2 [Risperidone]	–	–	> 10	–
C[C@H]1O[C@@H](O[C@H]2[C@@H](O)C[C@H](O[C@H]3[C@@H](O)C[C@H](O[C@H]4CC[C@@]5(C)[C@H](CC[C@@H]6[C@@H]5C[C@@H](O)[C@]5(C)[C@@H](C7=CC(=O)OC7)CC[C@]65O)C4)O[C@@H]3C)O[C@@H]2C)C[C@H](O)[C@@H]1O [Digoxin]	7.55	–	–	pIC50 ([1]; 48 h): 7.55
Cn1cc(C2=C(c3cn(C4CCN(Cc5ccccn5)CC4)c4ccccc34)C(=O)NC2=O)c2ccccc21 [Enzastaurin hydrochloride]	5.55	–	> 10	–
CN(C)CCCN1c2ccccc2Sc2ccc(Cl)cc21 [chlorpromazine]	5.29	–	> 10	–
CCCC(=O)O[C@]1(C(=O)CCl)[C@H](C)C[C@@H]2[C@@H]3CCC4=CC(=O)C=C[C@]4(C)[C@]3(F)C(=O)C[C@@]21C [Clobetasone butyrate]	5.07	–	–	CC50 [2, 9]: > 10 µM
CN[C@H]1CC[C@@H](c2ccc(Cl)c(Cl)c2)c2ccccc21 [Sertraline hydrochloride]	–	> 10	> 10	–
CCN(CC)CCOc1ccc(C(=C(Cl)c2ccccc2)c2ccccc2)cc1 [Clomiphene citrate]	–	> 10	> 10	–
COC(=O)C1=C(C)NC(C)=C(C(=O)OCC(C)C)C1c1ccccc1[N+](=O)[O-] (centres unmarked) [Nisoldipine]	5.63	–	> 10	–
CCN(CC)Cc1cc(Nc2ccnc3cc(Cl)ccc23)ccc1O [Amodiaquine]	5.92	> 10	> 10	pIC50 [1, 10]: 5.92; pIC50 [1, 6]: 5.92
Cc1ccc(Sc2ccccc2N2CCNCC2)c(C)c1 [Vortioxetine hydrobromide]	5.62	–	> 10	–
CSc1ccc2c(c1)N(CCC1CCCCN1C)c1ccccc1S2 (centres unmarked) [Thioridazine hydrochloride]	–	> 10	> 10	–
CCN(CC)C(=S)SSC(=S)N(CC)CC [Disulfiram]	6.74	–	0.23	–
CCN(CC)CCCC(C)Nc1ccnc2cc(Cl)ccc12 (centres unmarked) [Chloroquine]	7.18	–	–	pIC50 [1, 10]: 7.18
COc1cc2nc(N3CCN(C(=O)C4COc5ccccc5O4)CC3)nc(N)c2cc1OC (centres unmarked) [Doxazosin mesylate]	5.49	–	> 10	–
NC(=O)c1ncn([C@@H]2O[C@H](CO)[C@@H](O)[C@H]2O)n1 [Ribavirin]	6.00	> 10	> 10	pIC50 [1]: 6.00; pIC50 ([1]; 48 h): 6.00
OCCN(CCO)c1nc(N2CCCCC2)c2nc(N(CCO)CCO)nc(N3CCCCC3)c2n1 [Dipyridamole]	5.39	–	> 10	–
Oc1c(Cl)cc(Cl)c(Cl)c1Cc1c(O)c(Cl)cc(Cl)c1Cl [Hexachlorophene]	6.41	–	–	pIC50 [1, 10]: 6.41
C[C@H]1O[C@@H](O[C@H]2[C@@H](O)C[C@H](O[C@H]3[C@@H](O)C[C@H](O[C@H]4CC[C@@]5(C)[C@H](CC[C@@H]6[C@@H]5CC[C@]5(C)[C@@H](C7=CC(=O)OC7)CC[C@]65O)C4)O[C@@H]3C)O[C@@H]2C)C[C@H](O)[C@@H]1O [Digitoxin]	7.68	0.08	0.08	pIC50 [1, 10]: 7.68
C=CC[C@@H]1/C=C(\C)C[C@H](C)C[C@H](OC)[C@H]2O[C@@](O)(C(=O)C(=O)N3CCCC[C@H]3C(=O)O[C@H](/C(C)=C/[C@@H]3CC[C@@H](O)[C@H](OC)C3)[C@H](C)[C@@H](O)CC1=O)[C@H](C)C[C@@H]2OC [Tacrolimus hydrate]	5.48	–	> 10	–
